Results taken from US6046231A, “Use of 4'-bromoflavone in a cancer chemopreventative composition and method” (The Board of Trustees of the University of Illinois, priority 1999, dated 2000).
Entries after “also recorded” stand apart in the source; their conditions may differ.

Legend:
[1] = tested on: quinone reductase (QR), Hepa 1c1c7 cells; assay: Quinone reductase (QR) induction in Hepa 1c1c7 cells; type: cell-based, murine
From the text: This test was used because the specific activity of QR rises concomitantly with other phase II enzymes in many animal tissues in response to various chemopreventive agents. The study included natural and synthetic B-ring substituted flavones, as well as biosynthetic precursor chalcones and flavanones.
Determination of Quinone Reductase Activity in Cell Cultures. To determine the potency of inducers, Hepa 1c1c7 murine hepatoma cells as described in the Gerhauser publication were placed in 96-well plates at a density of 1×10^4 cells/ml in 200 μl of medium. After a preincubation period of 24 hr, the media were decanted and 190 μl fresh media were added to each well. Ten (10) μl test agents dissolved in 10% DMSO (final concentration of DMSO is 0.5%) with a serial 2-fold dilutions were introduced to each well, and the plates were incubated for an additional 48 hours. Specific QR activity was determined by measuring the NADPH-dependent menadiol-mediated reduction of 3-(4, 5-dimethylthiazo-2-yl)-2,5-diphenyltetrazolium bromide to blue formazan formed per mg protein per minute. Protein was determined in an identical set of test plates by staining with crystal violet. Hepa 1c1c7 cells retain many characteristics of normal issues, particularly the capacity for carcinogen activation and metabolism. They are amenable to precise control of environmental, nutritional, and hormonal factors. […] Induction of QR activity was calculated by comparing the QR specific activity of agent-treated cells with that of solvent-treated cells, and a plot of ratio was generated. CD represents the concentration required to double QR induction. Chemopreventive index (CI) is an indexing value generated by comparing CD with IC50 (concentration for 50% inhibition of cell viability) values.
Induction of Quinone Reductase in Hepa 1c1c7 Cells. […] Modification of the B-ring of chalcones, flavanones, and flavones was hypothesized to induce torsion of the B-ring, and, therefor, simulate out-of-plane distortions characteristic of polycyclic aromatic hydrocarbons, such as DMBA. Induction of QR activity was calculated by comparing the QR specific activity of agent-treated cells with the QR specific activity of solvent-treated cells, and a plot of ratios was generated. CD represents the concentration required for a double fold of induction. CI (Chemopreventive Index) is a value obtained by comparing CD with IC50 (concentration for 50% inhibition of cell viability in […]).

[2] = tested on: QR XRE-CAT construct, HepG2 cells; assay: CAT expression in HepG2 cells transfected with QR XRE-CAT; type: cell-based, human cells; rat QR gene; details: 10 μM, 48 h; listed as 4'-BF
Experimental: Transcient Transfection Gene Expression Assay. Cultured HepG2 human hepatoma cells were transfected with three plasmid constructs (PDTD-1697CAT, XRE-CAT, ARE-CAT) containing various portions of the 5'-region of the QR gene fused to the CAT gene using the calcium phosphate precipitation method (J. Sambrook et al., Molecular cloning: A Laboratory Handbook, Ed. Chris Nolan, CHS Laboratory Press, 1989). After 4 hours of transfection, the cells were treated with 10% glycerol for 3 minutes and rinsed with PBS and switched to MEM, containing 100 units/ml penicillin G sodium, 100 units/ml streptomycin sulfate, nonessential amino acids, and 1 mM sodium pyruvate (Life Technologies Inc.) supplemented with 10% fetal bovine serum for 12-16 hours recovery. Then, test agents were added to the cells. After 48 hours of treatment with the test agents, cells were harvested with lysis buffer (Boehringer Mannheim Biochemical) and CAT protein expressions were assessed using a CAT ELISA kit (Boehringer Mannheim Biochemical). CAT enzyme expression was normalized for the protein content of each sample. All data were expressed as mean +/- SD. Means were compared using Student's t test with n=4.
This was further investigated in transient transfection experiments wherein human hepatoma cells were transfected with DNA constructs containing various portions of the 5' upstream promoter region of the QR gene linked to the CAT reporter gene by using the calcium phosphate precipitation method. Construct pDTD-1097CAT contains elements of the rat QR gene connected to the CAT construct gene. […]
In particular, FIG. 1 illustrates quantitation of CAT expression in HepG2 cells transfected with QR-CAT constructs. […] CAT expression (ng CAT/mg protein) was determined using a CAT ELISA, and the ratio of CAT expression between treated and control cells was calculated (ratio=treated/control).

[3] = tested on: HepG2 cells (B[α]P-DNA adducts); assay: Binding of metabolically activated [3H]B[α]P to DNA of cultured HepG2 cells; type: cell-based; details: Homo sapiens, read-out: IC50, formation of B[α]P-DNA adducts, HepG2
Experimental: Effect of 4'-BF on the Binding of Metabolically Activated [^3 H]B[α]P to DNA of Cultured Cells. HepG2 cells or MCF-7 cells were plated at a density of 1×10^6 cells/dish in 6 cm Petri dishes and allowed to incubate for 18 hours. Fresh media containing test samples were added to the cells 2 hours prior to the addition of 1 μM [^3 H]B[α]P (10 Ci/mmol) The test compound and tritiated carcinogen then were incubated for 6 hours. Following incubation, genomic DNA was extracted by the method described by Sharma et al., with minor modifications. Briefly, the cells were washed three times with PBS and harvested by incubation with 0.5 ml of proteinase K (100 μg/ml) in 0.2 M Tris-0.1 M EDTA (pH 8.5) for 10 min at 37° C. The cells were gently scraped from the dishes, transferred to 50 μl of 10% SDS solution, and incubated for 3 hours at 55° C. […] An aliquot of harvested DNA was used for measuring the relative absorbencies at 260 and 280 nm (A2360 nm/A2380 nm=1.7-1.9), and the DNA content was determined by absorbance at 260 nm (1 A2360 nm unit=50 μg). The remaining sample was used for the determination of radioactivity. All experiments were performed in triplicate; percentage inhibition of carcinogen-DNA binding mediated by test samples was calculated as follows: % inhibition=[1-(dpm per μg DNA test cells/dpm per μg DNA control cells)]×100.

## O=c1cc(-c2ccc(Br)cc2)oc2ccccc12 [4'-Bromoflavone]
[1]; Hepa 1c1c7 cells
  Cq: 0.15 µM
[1]; IC50/CD, 2880 min
  CI, chemoprevention index (IC50/CD): > 17000
[1]; Mus musculus, Hepa-1c1c7, 48 h, Hepa 1c1c7 cells, 48 h, read-out: CD, concentration to double the specific activity of QR
  EC (2-fold): 0.01 µM
[1]; compared to sulforaphane
  times more active than sulforaphane: about 40 times
[2]
  CAT expression, QR XRE-CAT: Significant induction; also recorded: significantly (P<0.0001, students t test with n=4) induced
[3]
  IC50: ~3.1 µM
